The supplement of paper PMC10307832

Legend:
Test in all cases: relative viability (nuclei count vs DMSO), 5 days (fraction); higher = more cells survive
VX-11e + Trametinib = compound: CC1=CN=C(N=C1C2=CNC(=C2)C(=O)N[C@H](CO)C3=CC(=CC=C3)Cl)NC4=C(C=C(C=C4)F)Cl [VX-11e] + CC(=O)Nc1cccc(-n2c(=O)n(C3CC3)c(=O)c3c(Nc4ccc(I)cc4F)n(C)c(=O)c(C)c32)c1 [Trametinib] (partner 0.02 µM)
Summary of the method: (§1)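 For relative viability, nuclei counts in treated wells were divided by those in vehicle wells. Lung cancer cell lines had been pin-tool dosed in 1536-well plates the day after seeding and cultured for 5 days, then fixed and stained in one step (final 0.05% Triton X-100, 1% formaldehyde, 1 ug/ml Hoechst) and imaged at 4×. Doses were one drug alone or a fixed anchor-drug dose plus five library-drug doses (not always all listed) in √10 steps, and values are duplicate-plate medians.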

VX-11e + Bortezomib = compound: CC1=CN=C(N=C1C2=CNC(=C2)C(=O)N[C@H](CO)C3=CC(=CC=C3)Cl)NC4=C(C=C(C=C4)F)Cl [VX-11e] + CC(C)C[C@H](NC(=O)[C@H](Cc1ccccc1)NC(=O)c1cnccn1)B(O)O [Bortezomib] (partner 0.002 µM)
Summary of the method: as §1

VX-11e + Pictilisib = compound: CC1=CN=C(N=C1C2=CNC(=C2)C(=O)N[C@H](CO)C3=CC(=CC=C3)Cl)NC4=C(C=C(C=C4)F)Cl [VX-11e] + CS(=O)(=O)N1CCN(Cc2cc3nc(-c4cccc5[nH]ncc45)nc(N4CCOCC4)c3s2)CC1 [Pictilisib] (partner 1 µM)
Summary of the method: as §1

VX-11e + Olaparib = compound: CC1=CN=C(N=C1C2=CNC(=C2)C(=O)N[C@H](CO)C3=CC(=CC=C3)Cl)NC4=C(C=C(C=C4)F)Cl [VX-11e] + O=C(c1cc(Cc2n[nH]c(=O)c3ccccc23)ccc1F)N1CCN(C(=O)C2CC2)CC1 [Olaparib] (partner 8 µM)
Summary of the method: as §1

Cell Line | relative viability (VX-11e + Trametinib; first compound 0.04 µM) | relative viability (VX-11e + Trametinib; first compound 0.1265 µM) | relative viability (VX-11e + Trametinib; first compound 0.4 µM) | relative viability (VX-11e + Trametinib; first compound 1.265 µM) | relative viability (VX-11e + Trametinib; first compound 4 µM) | relative viability (VX-11e + Bortezomib; first compound 0.04 µM) | relative viability (VX-11e + Bortezomib; first compound 0.1265 µM) | relative viability (VX-11e + Bortezomib; first compound 0.4 µM) | relative viability (VX-11e + Bortezomib; first compound 1.265 µM) | relative viability (VX-11e + Bortezomib; first compound 4 µM) | relative viability (VX-11e + Pictilisib; first compound 0.04 µM) | relative viability (VX-11e + Pictilisib; first compound 0.1265 µM) | relative viability (VX-11e + Pictilisib; first compound 0.4 µM) | relative viability (VX-11e + Pictilisib; first compound 1.265 µM) | relative viability (VX-11e + Pictilisib; first compound 4 µM) | relative viability (VX-11e + Olaparib; first compound 0.04 µM) | relative viability (VX-11e + Olaparib; first compound 0.1265 µM) | relative viability (VX-11e + Olaparib; first compound 0.4 µM) | relative viability (VX-11e + Olaparib; first compound 1.265 µM) | relative viability (VX-11e + Olaparib; first compound 4 µM)
HCC-78 | 0.827 | 0.651 | 0.632 | 0.559 | 0.387 | 0.565 | 0.491 | 0.505 | 0.227 | 0.441 | 0.23 | 0.185 | 0.31 | 0.189 | 0.224 | 0.852 | 0.639 | 0.834 | 0.963 | 0.754
HCC-366 | 0.353 | 0.344 |  | 0.289 | 0.187 | 0.959 | 0.895 |  | 0.864 | 0.759 | 0.159 | 0.101 | 0.15 | 0.12 | 0.081 | 0.386 | 0.372 |  | 0.271 | 0.208
HCC-827 | 0.555 | 0.568 | 0.454 | 0.549 | 0.274 | 1.11 | 1.1 | 1.09 | 1.2 | 1.02 | 1.03 | 0.883 | 1.06 | 1.19 | 0.813 | 0.556 | 0.609 | 0.724 | 0.768 | 0.516
HOP-62 | 0.381 | 0.428 | 0.296 | 0.179 | 0.151 | 0.688 | 0.963 | 0.553 | 0.214 | 0.515 | 0.42 | 0.51 | 0.152 | 0.125 | 0.116 | 0.668 | 0.248 | 0.174 | 0.304 | 0.24
IA-LM |  |  |  |  |  | 0.959 | 0.941 | 0.927 | 0.306 | 0.105 | 0.327 | 0.263 | 0.199 | 0.0879 | 0.0695 | 0.877 | 0.864 | 0.963 | 0.536 | 0.173
LC-2-ad | 0.998 | 0.856 | 0.881 | 0.755 | 0.537 | 1.13 | 0.962 | 0.894 | 0.403 | 0.841 | 0.398 | 0.432 | 0.349 | 0.247 | 0.163 | 0.713 | 0.669 | 0.746 | 0.673 | 0.687
LCLC-97TM1 | 0.21 | 0.179 | 0.17 |  | 0.0986 | 0.591 | 0.675 | 0.943 | 0.339 | 0.107 | 0.137 | 0.138 |  | 0.143 | 0.0889 | 0.432 | 0.363 | 0.29 |  | 0.103
LCLC-103H | 0.67 | 0.633 | 0.689 | 0.628 | 0.558 | 1.07 | 1.11 | 1.03 | 0.658 | 0.917 | 0.516 | 0.509 | 0.582 | 0.442 | 0.439 | 0.787 | 0.748 | 0.719 | 0.638 | 0.667
LK-2 | 0.831 | 0.668 | 0.806 | 0.234 | 0.312 |  |  |  |  |  |  | 0.45 | 0.562 |  | 0.337 | 0.688 | 0.783 | 0.676 | 0.657 | 0.45
NCI-H358 | 0.0982 | 0.135 | 0.0751 | 0.121 | 0.112 |  |  |  |  |  | 0.3 | 0.313 |  | 0.372 | 0.254 | 0.594 | 0.525 | 0.525 | 0.441 | 0.163
NCI-H522 | 0.684 | 0.773 | 0.618 | 0.645 | 0.589 |  |  |  |  |  |  |  |  |  |  | 0.588 | 0.594 | 0.457 | 0.545 | 0.533
NCI-H1299 |  |  |  |  |  | 0.987 | 0.978 | 0.978 | 1.05 | 0.556 | 0.851 | 0.821 | 0.681 | 0.262 | 0.119 | 1 | 0.967 | 0.968 | 0.92 | 0.519
NCI-H1395 | 1 | 0.942 |  | 0.895 | 0.617 |  |  |  |  |  | 0.682 | 0.551 | 0.501 | 0.59 | 0.435 | 0.424 | 0.461 |  | 0.499 | 0.388
NCI-H1563 |  |  |  |  |  | 0.884 | 0.734 | 0.637 | 0.739 | 0.747 | 0.662 | 0.538 | 0.559 | 0.656 | 0.625 |  |  |  |  | 
NCI-H1648 |  | 0.406 | 0.5 | 0.376 | 0.291 |  |  |  |  |  |  |  |  |  |  |  | 0.658 | 0.765 | 0.855 | 0.52
NCI-H1703 |  |  |  |  |  | 0.473 | 0.414 | 0.258 | 0.35 | 0.21 |  | 0.257 | 0.234 | 0.268 | 0.258 | 0.403 | 0.591 |  | 0.393 | 0.316
NCI-H1793 |  | 0.316 |  | 0.344 | 0.27 |  |  |  |  |  |  | 0.329 |  | 0.273 | 0.232 |  | 0.788 |  | 0.751 | 0.313
NCI-H1944 | 0.468 | 0.441 | 0.343 | 0.347 | 0.282 |  |  |  |  |  | 0.301 | 0.308 | 0.306 | 0.309 | 0.281 | 0.405 | 0.417 | 0.376 | 0.345 | 0.328
NCI-H2170 | 0.805 | 0.913 | 0.89 | 0.854 | 0.819 |  |  |  |  |  | 0.244 | 0.265 | 0.19 | 0.217 | 0.237 | 0.635 | 0.662 | 0.603 | 0.629 | 0.534
NCI-H2342 |  | 0.741 | 0.765 | 0.858 | 0.823 |  |  |  |  |  |  |  |  |  |  |  | 0.476 | 0.414 | 0.471 | 0.367
SK-MES-1 | 0.566 | 0.486 | 0.399 | 0.338 | 0.27 |  |  |  |  |  | 0.337 | 0.31 | 0.316 | 0.249 | 0.168 | 0.732 | 0.636 | 0.826 | 0.493 | 0.265
SW 900 | 0.826 | 0.761 |  | 0.483 | 0.605 |  |  |  |  |  |  |  |  |  |  | 0.879 | 0.888 |  | 0.836 | 0.581
